Test results from patent US20230285516A1 (priority 2020, published 2023).

Experiments:
[1] = test system: IL-1β; experiment: IL-1β in co-culture supernatants (ELISA); format: cell-based, human; conditions: RA or OA co-cultures, day 7 of culture
Description: Cartilage and synovium co-cultures were performed from 9 patients with RA and 8 patients with OA who underwent hip or knee replacement (Table 1). Joint tissue was cultured with (a) RPMI (control), (b) 1% type I polymerized collagen, for 7 days. The supernatants and tissues of days 1 and 7 were […] collected. In the culture supernatants the concentration of IL-1β, IL-8, IL-10, IL-12, TNF-α and IFN-γ was quantified by ELISA and the results were normalized with total protein concentration. The expression of IL-1β and TNF-α was evaluated using histochemistry.
FIG. 3. Effect of type I polymerized collagen on IL-1β expression in supernatants of cartilage and synovium co-cultures from patients with rheumatoid arthritis (RA) or osteoarthritis (OA). The data represent the mean±SD of 9 co-cultures of cartilage and synovial tissue from patients with RA and of 8 co-cultures of patients with OA. Each culture was performed in triplicate for each condition. The results were normalized with the total protein concentration of the supernatant, determined by the Folin-Lowry micromethod. AR: left panel. OA: panel on the right. Basal: tissue in basal conditions.

[2] = test system: Th17 (CD4+/IL-17+) cells; experiment: FACS of spleen Th17 cells in CIA models; format: in vivo, mice; conditions: CIA model, fold
Description: (§1) Early Arthritis Model. Fifty mice with the same characteristics were immunized at the base of the tail with 100 μg of chicken type II collagen emulsified in complete Freund's adjuvant. The boost was applied on day 21 at the base of the tail with 100 μg of type II collagen emulsified with Freund's incomplete adjuvant. On the same boosting day, the treatments (a-d) were applied every week for six weeks. Three animals were euthanized in the sixth week and three in the thirteenth week. The spleen, lymph nodes, joint tissue, liver, lungs, kidneys and heart were obtained in order to assess the inflammatory infiltrate, the predominant cell populations and the expression of pro- and anti-inflammatory cytokines.
Established Arthritis Model. Arthritis was induced as in the previous model in 50 mice and the treatments were applied intramuscularly, after 2 weeks of the boost, every week for 6 weeks. Three animals were euthanized in the eighth week and three in the fifteenth week. The spleen, lymph nodes, joint tissue, liver, lungs, kidneys and heart were obtained in order to assess the inflammatory infiltrate, the predominant cell populations and the expression of pro- and anti-inflammatory cytokines. […]
FIG. 10. […] The intracellular production of IL-17A, IL-4, IFN-γ and Foxp3 by CD4+ T cells was detected by flow cytometry. The results are representative of 6 mice analyzed in each group. […]

[3] = test system: Treg (CD4+/FOXP3+) cells; experiment: FACS of spleen Foxp3+ regulatory T cells in CIA models; format: in vivo, mice
Description: as §1
Established Arthritis Model. Arthritis was induced as in the previous model in 50 mice and the treatments were applied intramuscularly, after 2 weeks of the boost, every week for 6 weeks. Three animals were euthanized in the eighth week and three in the fifteenth week. The spleen, lymph nodes, joint tissue, liver, lungs, kidneys and heart were obtained in order to assess the inflammatory infiltrate, the predominant cell populations and the expression of pro- and anti-inflammatory cytokines.
Cytometric evaluation. Using FACS, the percentage of populations of Th1 ([…]), Th2 (CD4^+/IL-4^+), Treg (CD4^+/FOXP3^+) Th17 (CD4^+/IL-17^+) and dendritic (CD4−/CD11c^+) cells in spleen cells.
FIG. 10. Effect of type I polymerized collagen in the early (preventive) and long-standing (late or palliative) arthritis model on the percentage of spleen CD4+ T cell subpopulations. (A) Spleen cells obtained ex vivo in the early arthritis model during the first sacrifice. (B) Spleen cells obtained ex vivo in the early arthritis model during the second sacrifice. (C) Spleen cells obtained ex vivo in the long-standing arthritis model during the first sacrifice. […] The intracellular production of IL-17A, IL-4, IFN-γ and Foxp3 by CD4+ T cells was detected by flow cytometry. The results are representative of 6 mice analyzed in each group. […]

[4] = test system: SARS-CoV2 (Covid-19)
[5] = end of treatment and 7-day follow-up

**Q.** Which results are given for “collagen-polyvinylpyrrolidone [type I polymerized collagen]”?
**A.** expression of IL-1β vs. the controls in the supernatants [1]: decreased; negative regulation of the subpopulation of Th17 cells [2]: 1.5-2.0 ×; positive regulation of Tregs cells ([3]; CIA model, fold): 5.0-6.0 ×; Foxp3+ regulatory T cells ([3]; early and long-standing arthritis, first and second sacrifice, vs placebo): increase; fever, changes in heart rate and odynophagia ([4]; after 7 days): disappearance; patients in whom cough, myalgia, and loss of taste persisted ([4]; after 7 days): 40%; patients persisting with alterations in respiratory rate, headache, anosmia, and arthralgia ([4]; after 7 days): 20%; patients persisting with dyspnea ([4]; after 7 days): 60%; patients with mild alterations in heart rate, cough and loss of the sense of taste ([4]; day 14, 7 days post-treatment): 20%; the other symptoms ([4]; day 14, 7 days post-treatment): disappeared; dyspnea and headache [4, 5]: disappeared in all patients; oxygen requirement to maintain saturation >90% [4, 5]: none required oxygen; acute respiratory failure syndrome or hospitalization ([4]; human, in vivo): None; complications related to SARS-CoV2 infection or due to the use of collagen-PVP ([4]; human, in vivo): No complications; death ([4]; human, in vivo): No patient died; adverse effects ([4]; mild to moderate disease): No adverse effects were detected, except for pain at the application site; persistence of pain at the application site ([4]; mild to moderate disease): 5 to 15 min; clinical improvement ([4]; patients with Covid-19, intramuscular, all cases): In all cases there was a clinical improvement
